Laboratory results from article PMC7990224 (PLoS Pathogens, 2021).
Like-named read-outs stand apart in the source and are kept apart here.

Assays:
[1] = test system: SARS-CoV-2 trVLP; format: cell-based
[2] = test system: SARS-CoV-2 GFP/ΔN trVLP; format: cell-based
[3] = in vitro; format: cell-based, human; details: human, n.d. = not detected
Protocol: (§1) Caco-2-N cells were seeded into 96-well plate (1×10^3 cells/well). After 12 hours, cells were treated with drugs with different concentrations. Cell viability was measured two days post treatment with CellTiter-Glo Luminescent Cell Viability Assay kit (Promega, G7570) following standard protocol. In brief, cells in 100 μl culture medium were added with 100 μl CellTiter-Glo reagent. After 15 minutes, luminescence was recorded with GloMax (Promega). CC50 was determined using logarithmic interpolation using GraphPad Prism software version 7.0.

[4] = test system: Caco-2-N cells; experiment: in vitro; format: cell-based, human; details: Fig 6B-6E, at tested concentrations, CellTiter-Glo
Protocol: as §1

[5] = test system: SARS-CoV-2 strain nCoV-SH01; experiment: microbe, parasite or virus in culture; format: cell-based
[6] = test system: HCoV-OC43; details: cited from earlier work
[7] = test system: SARS-CoV-2; details: cited from earlier work
[8] = test system: avian infectious bronchitis virus (IBV); details: cited from earlier work
[9] = Severe acute respiratory syndrome coronavirus 2, A549-ACE2

[Cl-].[Li+] [LiCl]
effect on GFP expression (trVLP production) [1]: inhibit GFP expression in a dose-dependent manner

Cc1cccc(C)c1OCC(=O)N[C@@H](Cc1ccccc1)[C@@H](O)C[C@H](Cc1ccccc1)NC(=O)[C@H](C(C)C)N1CCCNC1=O [Lopinavir]
Selectivity Index (SI) [2]: 2.18
CC50 ([3]; Fig 6F, CellTiter-Glo, two days treatment): 19100 nM
cytotoxic effect [4]: serious cytotoxicity at the IC50 concentration

O[C@H]1[C@H]2c3cc4c(cc3CN3CCC(=C[C@@H]1O)[C@H]23)OCO4 [Lycorine chloride]
IC50 [5, 9]: 773 nM
inhibition of HCoV-OC43 infection [6]: inhibit HCoV-OC43 infection

CO[C@@H]1C[C@@H](C[C@H]2CC[C@H](C)[C@H]([C@@H](C)C(=O)O)O2)O[C@]2(O[C@](C)([C@H]3CC[C@@](C)([C@@H]4O[C@@H]([C@H]5O[C@@](O)(CO)[C@H](C)C[C@@H]5C)C[C@@H]4C)O3)C[C@H]2C)[C@@H]1C [Nigericin sodium]
IC50 ([5]; read-out: IC50): 11200 nM

CCC(CC)COC(=O)[C@H](C)N[P@](=O)(OC[C@H]1O[C@@](C#N)(c2ccc3c(N)ncnn23)[C@H](O)[C@@H]1O)Oc1ccccc1 [Remdesivir]
cytotoxic effect [4]: no apparent cytotoxic effect

CC(C)c1nc(CN(C)C(=O)N[C@H](C(=O)N[C@@H](Cc2ccccc2)C[C@H](O)[C@H](Cc2ccccc2)NC(=O)OCc2cncs2)C(C)C)cs1 [Ritonavir]
cytotoxic effect [4]: serious cytotoxicity at the IC50 concentration

Cn1cc(C2=C(c3ccc(Cl)cc3Cl)C(=O)NC2=O)c2ccccc21 [SB216763]
effect on GFP expression (trVLP production) [1]: inhibit GFP expression in a dose-dependent manner

CC[C@@H](C(=O)[C@@H](C)[C@@H](O)[C@H](C)[C@@H]1O[C@@H]([C@@H](CC)C(=O)O)CC[C@@H]1C)[C@H]1O[C@]2(C=C[C@@H](O)[C@]3(CC[C@@](C)([C@H]4CC[C@](O)(CC)[C@H](C)O4)O3)O2)[C@H](C)C[C@@H]1C [Salinomycin]
CC50 ([3]; Fig 7G hit compounds, cell line for this CC50 not stated): 20200 nM
selectivity index (SI = CC50/IC50) [5]: 7.13
IC50 [5, 9]: 2840 nM
inhibition of HCoV-OC43 infection [6]: inhibit HCoV-OC43 infection
antiviral activity against SARS-CoV-2 infection in vitro [7]: potent antiviral activity

GC376
cytotoxic effect [4]: no apparent cytotoxic effect

Monensin sodium
IC50 ([5]; read-out: IC50): 632 nM
inhibition of HCoV-OC43 infection [6]: inhibit HCoV-OC43 infection
inhibition of IBV infection [8]: blocks avian infectious bronchitis virus (IBV) infection

Tubeimoside I
IC50 ([5]; read-out: IC50): 1370 nM
